Active and inactive are the calls of the source. The calls are words filed in the database; no cut-off is given here.
Columns and labels:
Histone deacetylase 1 = Histone deacetylase 1 (Homo sapiens, UniProt Q13547); assay: Inhibition of recombinant human full length HDAC1 using fluorogenic substrate 3 after 30 mins by fluorescence assay
[1] = target: T1, Indoleamine 2,3-dioxygenase 1 (Homo sapiens, UniProt P14902); assay: Inhibition of recombinant human GST-tagged IDO1 (1 to 404 residues) using D-Tryptophan as substrate
Target sequence in this assay (P14902 whole entry, the tested form may be a part): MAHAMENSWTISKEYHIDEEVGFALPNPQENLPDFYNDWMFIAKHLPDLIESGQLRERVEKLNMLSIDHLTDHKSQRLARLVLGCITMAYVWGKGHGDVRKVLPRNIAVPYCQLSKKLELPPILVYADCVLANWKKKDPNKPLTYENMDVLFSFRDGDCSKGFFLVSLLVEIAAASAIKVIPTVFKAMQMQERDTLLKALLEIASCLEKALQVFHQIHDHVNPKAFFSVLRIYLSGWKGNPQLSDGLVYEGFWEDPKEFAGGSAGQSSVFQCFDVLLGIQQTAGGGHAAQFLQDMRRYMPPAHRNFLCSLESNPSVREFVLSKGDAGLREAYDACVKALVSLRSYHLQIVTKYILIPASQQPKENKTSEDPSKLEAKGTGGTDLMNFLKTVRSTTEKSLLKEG

[2] = test system: Lewis lung carcinoma cell line; assay: Antiproliferative activity against mouse LLC cells after 48 hrs by CCK-8 assay; format: functional, cell-based
CT26 = assay: Antiproliferative activity against mouse CT26 cells after 48 hrs by CCK-8 assay; format: functional, cell-based; details: CT26, 48 h
A549 = assay: Antiproliferative activity against human A549 cells after 48 hrs by CCK-8 assay; format: functional, cell-based; details: A549, 48 h
HCT-116 [3] = assay: Antiproliferative activity against human HCT116 cells after 48 hrs by CCK-8 assay; format: functional, cell-based; details: HCT-116, 48 h
HT-29 = assay: Antiproliferative activity against human HT-29 cells after 48 hrs by CCK-8 assay; format: functional, cell-based; details: HT-29, 48 h
Mus musculus [4] = assay: In vivo inhibition of IDO1 in wild type C57BL/6 mouse assessed as reduction in kynurenine levels in plasma at 100 mg/kg, po administered via gavage measured up to 1 hr by LC-MS/MS analysis; format: functional, organism-based
Mus musculus [5] = assay: In vivo inhibition of IDO1 in wild type C57BL/6 mouse assessed as reduction in kynurenine levels in plasma at 100 mg/kg, po administered via gavage after 8 hrs by LC-MS/MS analysis; format: functional; details: C57BL/6, po
[6] = test system: Lewis lung carcinoma cell line; assay: Antitumor activity against mouse LLC cells implanted in immunocompetent C57BL/6 mouse assessed as tumor growth inhibition at 100 mg/kg, po bid administered via gavage for 14 consecutive days measured every 4 days relative to control; format: functional; details: 96 h, read-out: TGI
[7] = target: T1, Indoleamine 2,3-dioxygenase 1; assay: Inhibition of recombinant human GST-tagged IDO1 (1 to 404 residues) at 1 uM using D-Tryptophan as substrate relative to control
Target sequence in this assay (P14902 whole entry, looked up, the tested form may be a part): as the sequence (P14902 whole entry, the tested form may be a part) above

[8] = Cmax in Sprague-Dawley rat at 100 mg/kg, po administered as single dose via gavage by LC-MS/MS analysis; format: ADME, organism-based; set-up: dose 100 mg/kg, route oral; details: in vivo
[9] = Tmax in Sprague-Dawley rat at 100 mg/kg, po administered as single dose via gavage by LC-MS/MS analysis; format: ADME, organism-based; details: in vivo
[10] = Half life in Sprague-Dawley rat at 100 mg/kg, po administered as single dose via gavage by LC-MS/MS analysis; format: ADME, organism-based; details: in vivo
[11] = AUC (0 to infinity) in Sprague-Dawley rat at 100 mg/kg, po administered as single dose via gavage by LC-MS/MS analysis; format: ADME, organism-based; set-up: dose 100 mg/kg, time infinity, route oral; details: in vivo
[12] = AUC in immunocompetent C57BL/6 mouse implanted with mouse LLC cells at 100 mg/kg, po bid administered via gavage; format: ADME, organism-based; details: in vivo
[13] = Half life in immunocompetent C57BL/6 mouse implanted with mouse LLC cells at 100 mg/kg, po bid administered via gavage; format: ADME, organism-based; details: in vivo
HCT-116 [14] = assay: Induction of apoptosis in human HCT116 cells after 48 hrs by Annexin V-FITC/propidium iodide staining based flow cytometry; format: functional, cell-based
HCT-116 [15] = assay: Induction of apoptosis in human HCT116 cells at 5 uM after 48 hrs by Annexin V-FITC/propidium iodide staining based flow cytometry relative to control; format: functional
HCT-116 [16] = assay: Induction of apoptosis in human HCT116 cells at 10 uM after 48 hrs by Annexin V-FITC/propidium iodide staining based flow cytometry relative to control; format: functional
HCT-116 [17] = assay: Induction of apoptosis in human HCT116 cells at 20 uM after 48 hrs by Annexin V-FITC/propidium iodide staining based flow cytometry relative to control; format: functional
HCT-116 [18] = assay: Cell cycle arrest in human HCT116 cells assessed as accumulation at G2/M phase up to 48 hrs by propidium iodide staining based flow cytometry; format: functional

Sequence of Histone deacetylase 1 (Q13547 whole entry, the tested form may be a part): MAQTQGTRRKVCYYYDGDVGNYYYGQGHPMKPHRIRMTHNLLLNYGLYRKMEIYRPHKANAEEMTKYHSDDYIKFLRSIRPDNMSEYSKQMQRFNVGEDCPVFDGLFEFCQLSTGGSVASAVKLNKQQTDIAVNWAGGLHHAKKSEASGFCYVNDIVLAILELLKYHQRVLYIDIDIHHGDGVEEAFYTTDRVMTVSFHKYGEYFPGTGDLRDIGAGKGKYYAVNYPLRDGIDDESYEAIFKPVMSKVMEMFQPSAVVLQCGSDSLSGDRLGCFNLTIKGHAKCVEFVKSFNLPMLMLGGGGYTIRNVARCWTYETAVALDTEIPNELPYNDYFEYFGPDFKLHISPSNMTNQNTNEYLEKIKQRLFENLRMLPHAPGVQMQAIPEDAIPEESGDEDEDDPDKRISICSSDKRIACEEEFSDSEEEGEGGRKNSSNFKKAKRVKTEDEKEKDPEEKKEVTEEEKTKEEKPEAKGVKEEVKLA

| Structure (SMILES) | IC50 (Histone deacetylase 1) | IC50 [1] | IC50 [2] | IC50 (CT26) | IC50 (A549) | IC50 (HCT-116 [3]) | IC50 (HT-29) | inhibition [7] | further results |
| --- | --- | --- | --- | --- | --- | --- | --- | --- | --- |
| O=C(CCCCC(=O)NCCNc1nonc1/C(=N/O)Nc1ccc(F)c(Br)c1)NO | 0.308 µM | 0.123 µM | > 100 µM | > 100 µM | > 100 µM | 85.4 µM | > 100 µM | – | – |
| NS(=O)(=O)NCCNc1nonc1/C(=N/O)Nc1ccc(F)c(Br)c1 [EPACADOSTAT] | – | – | > 100 µM | > 100 µM | > 100 µM | > 100 µM | > 100 µM | – | inhibition (Mus musculus [4]): Active; inhibition in vivo at 100 mg/kg (Mus musculus [5]): 50%; inhibition in vivo at 100 mg/kg [6]: 54.3% |
| O=C(CCCCCC(=O)NCCNc1nonc1/C(=N/O)Nc1ccc(F)c(Br)c1)NO | 0.0092 µM | 0.113 µM | 90.1 µM | 95.5 µM | 40.7 µM | 17.5 µM | 28.7 µM | – | – |
| O=C(/C=C/c1cccc(C(=O)NCCNc2nonc2/C(=N/O)Nc2ccc(F)c(Br)c2)c1)NO | 0.0705 µM | 0.027 µM | 53.3 µM | 38.9 µM | 41.7 µM | 12.4 µM | 23.3 µM | – | – |
| O=C(NO)c1ccc(C(=O)NCCNc2nonc2/C(=N/O)Nc2ccc(F)c(Br)c2)cc1 | 0.262 µM | – | > 100 µM | > 100 µM | 89.8 µM | 28.1 µM | 68 µM | 95% | – |
| NS(=O)(=O)NCCNc1nonc1C(=NO)Nc1ccc(F)c(Br)c1 [EPACADOSTAT] | – | – | – | – | – | – | – | – | Cmax [8]: 5560 ng/mL; Tmax [9]: 0.8 h; half-life [10]: 4.5 h; AUC(0-inf) [11]: 30700 ng·h/mL; AUC [12]: 70.2 µM·h; half-life [13]: 4.5 h |
| O=C(CCCCCn1cc(-c2ccc(C(=O)NCCNc3nonc3/C(=N/O)Nc3ccc(F)c(Br)c3)cc2)nn1)NO | 0.0665 µM | – | > 100 µM | > 100 µM | > 100 µM | > 100 µM | > 100 µM | 87% | – |
| O=C(CCCCCCC(=O)NCCNc1nonc1/C(=N/O)Nc1ccc(F)c(Br)c1)NO | 0.0477 µM | 0.14 µM | 56.6 µM | 97.5 µM | 36 µM | 4.7 µM | 14.9 µM | – | Activity (HCT-116 [14]): Dose-dependent effect; Activity (HCT-116 [15]): 25.5%; Activity (HCT-116 [16]): 31.1%; Activity (HCT-116 [17]): 44.5%; Activity (HCT-116 [18]): Active |
| O=C(CCCCn1cc(-c2ccc(C(=O)NCCNc3nonc3/C(=N/O)Nc3ccc(F)c(Br)c3)cc2)nn1)NO | 0.895 µM | – | > 100 µM | > 100 µM | > 100 µM | 37.5 µM | > 100 µM | 88% | – |
| O=C(CCCC(=O)NCCNc1nonc1/C(=N/O)Nc1ccc(F)c(Br)c1)NO | 0.121 µM | 0.133 µM | > 100 µM | > 100 µM | > 100 µM | 80.2 µM | > 100 µM | – | – |

Further lines, with some results ahead:

| IC50 (Histone deacetylase 1) | IC50 [1] | IC50 [2] | IC50 (CT26) | IC50 (A549) | IC50 (HCT-116 [3]) | IC50 (HT-29) | inhibition [7] | Structure (SMILES) | further results |
| --- | --- | --- | --- | --- | --- | --- | --- | --- | --- |
| 0.0235 µM | 0.21 µM | 36 µM | 90.2 µM | 45.5 µM | 29.4 µM | 23.9 µM | – | O=C(CCCCCCn1cc(-c2ccc(C(=O)NCCNc3nonc3/C(=N/O)Nc3ccc(F)c(Br)c3)cc2)nn1)NO | – |
| 0.604 µM | 0.26 µM | 15.1 µM | 23.3 µM | 20.7 µM | 6.36 µM | 12.2 µM | – | Nc1ccccc1NC(=O)c1ccc(C(=O)NCCNc2nonc2/C(=N/O)Nc2ccc(F)c(Br)c2)cn1 | – |
| 1.43 µM | – | 18.3 µM | 38.8 µM | 14.5 µM | 7.12 µM | 20.3 µM | 76% | Nc1ccccc1NC(=O)c1ccc(C(=O)NCCNc2nonc2/C(=N/O)Nc2ccc(F)c(Br)c2)s1 | – |
| 0.633 µM | – | 31.4 µM | 25.5 µM | 27.8 µM | 16.2 µM | 46.4 µM | 79% | Nc1ccccc1NC(=O)c1cccc(C(=O)NCCNc2nonc2/C(=N/O)Nc2ccc(F)c(Br)c2)c1 | – |
| 0.0462 µM | 0.168 µM | 21.6 µM | 12.8 µM | 25.6 µM | 5.89 µM | 14.2 µM | – | O=C(/C=C/c1ccc(C(=O)NCCNc2nonc2/C(=N/O)Nc2ccc(F)c(Br)c2)cc1)NO | Activity (HCT-116 [14]): Dose-dependent effect; Activity (HCT-116 [15]): 26.7%; Activity (HCT-116 [16]): 45.4%; Activity (HCT-116 [17]): 61.3%; Activity (HCT-116 [18]): Active |
